Values joined by “and” are separate entries in the source; they are usually repeats but may differ in a detail not shown here. Equal values may be shown once. Read-outs that look alike come from different tables or passages of the source.
Columns and labels:
[1] = system: Hec50co cells; assay: Intracellular accumulation of PTX-OG (flow cytometry, confocal microscopy); assay type: cell-based, human; conditions: 400 nM PTX-OG alone, 2 h
Experimental: Intracellular accumulation of PTX using flow cytometer. To evaluate PTX cellular accumulation in the presence or absence of CIP2b, Hec50co cells were seeded at a density of 200,000 cells per well in 6-well plates in complete medium and incubated for 24 h. Afterward, the medium was removed, and a DMSO-based solution (0.1 mg/mL) of fluorescently labeled PTX (PTX-OG) was added at 400 nM per well, and the volume was completed to 2 mL with the medium. Also, CIP2b (in DMSO) was added at 4 or 40 μM, either alone or in combination with PTX-OG. After 2 h, the medium was removed, the cells were washed thoroughly with DPBS, trypsinized, and collected by centrifugation (230 xg, 5 min). Finally, cells were analyzed by flow cytometry (FACScan).
Intracellular accumulation of PTX using confocal microscopy. Intracellular accumulation of PTX co-delivered with CIP2b was also studied qualitatively in Hec50co cells using confocal microscopy. […]
(§1) In vitro activity of CIP2b NPs. […] An equivalent quantity of blank NPs was also tested to account for the effect of the PLGA NPs alone without CIP2b. […] An equivalent quantity of blank NPs was also added, either alone or with PTX-OG. Samples were then analyzed using a flow cytometer, as described above.

[2] = system: Hec50co cells; assay: Cytotoxicity assay (MTS), Hec50co cells; assay type: cell-based, human; conditions: 72 h; for IC50: Homo sapiens
Experimental: Cytotoxicity assay. Hec50co cells were seeded at 1500 cells per well in 96-well plates for 24 h in a complete medium. Later, the medium was removed and PTX, CIP2b, or CIP (all dissolved in DMSO and diluted in complete medium) were added to cells as either monotherapies or in combinations, and the plates were incubated for 72 hours. Then, the complete medium was removed and MTS reagent in the complete medium was added to wells, and the plates were incubated for 1-4 hours according to the manufacturer's protocol. Finally, the absorbance was recorded at 490 nm using a Spectra Max plus 384 Microplate Spectrophotometer (Molecular Devices, Sunnyvale, CA). Percentage cell viability was expressed as the average absorbance of the test group relative to that of the control group (untreated cells). The concentration that inhibits proliferation of 50% of cells compared to control (IC50) was calculated using GraphPad Prism (La Jolla, CA). Synergism was detected following the Chou-Talalay method (CI<1 indicates synergism) (Chou T C. Cancer research. 2010; 70(2):440-6, doi: 10.1158/0008-5472.CAN-09-1947) using CompuSyn software (Ver. 1.0). […]

[3] = system: Hec50co cells; assay: Cell cycle assay (PI flow cytometry); assay type: cell-based, human; conditions: 24 h
Experimental: Cell Cycle assay. Hec50co cells were seeded at […] cells per well in 6-well plates for 48 h in complete medium. The medium was then removed and replaced with PTX (1, 5, and 10 nM), CIP2b (10 μM), combinations of PTX with CIP2b, or with a fresh complete medium. Cells were incubated with the treatments for 24 h, then the medium was removed, and the cells were washed twice with Dulbecco's Phosphate-Buffered Saline (DPBS 1×, ThermoFisher Scientific), trypsinized (0.4 mL/well), and collected by centrifugation (230 xg, 5 min). Cells were then fixed using 70% ethanol stored at 4° C. for 30 min, then incubated with 100 μg/mL RNase A in 2% v/v NP-40 Surfact-Amps® solution (0.5 mL/sample) for 30 min at 37° C. Then, PI (50 μg/mL, 0.5 mL/sample) was added prior to analysis by flow cytometry (FACScan, BD Biosciences) using CellQuest software (Ver. 3.3). The data were further analyzed by ModFit LT (Ver. 5.0) to calculate the percent of cells in each phase of the cell cycle (i.e., G0/G1, S, G2/M).
as §1

[4] = system: tubulin; assay: Fluorescence-based tubulin polymerization assay; assay type: biochemical; conditions: 3 μM
Text: Tubulin polymerization assay. Microtubules are one of the major cytoskeleton components in the cells, and they play an essential role in the spindle formation generated by α and β tubulin polymerization. Agents targeting microtubules function through two different mechanisms. To elaborate, several compounds like taxanes (e.g., PTX) promote the assembly of microtubules and are known to stabilize the microtubes whereas other compounds such as vinca alkaloid and colchicine are known to interrupt the spindle formation via inhibiting the tubulin polymerization; thereby, destabilize the microtubules. The result of both scenarios is metaphase arrest which induces apoptosis. To test the tubulin activity, a fluorescence-based tubulin polymerization assay (Cat. No. BK011P, Cytoskeleton Inc., Denver, CO) was performed according to the manufacturer's instructions. Briefly, stock solutions of PTX and CIP2b (in DMSO) were diluted with UltraPure™ water to make a final concentration of 3 μM. […] Before starting the experiment, the 96-well plate and fluorimeter (SpectraMax M5 Microplate Reader) were pre-warmed to 37° C. […] Samples and tubulin were added to a 96-well plate, and the plate was inserted into the plate reader. Kinetic measurements started immediately, and data were collected and analyzed.

For CC(=O)O[C@H]1C(=O)[C@@]2(C)[C@H]([C@H](OC(=O)c3ccccc3)[C@]3(O)C[C@H](OC(=O)[C@H](O)[C@@H](NC(=O)c4ccccc4)c4ccccc4)C(C)=C1C3(C)C)[C@]1(OC(C)=O)CO[C@@H]1C[C@@H]2O [PTX, paclitaxel], the “cellular uptake of PTX-OG” value [1] was “readily taken up”, the survival ([2]; 0.1 nM PTX alone) was 100% and the cell survival ([2]; 5 nM PTX as single compound) was “about 80%”. It also gave an IC50 ([2]; 10 μM CIP2b added, read-out: IC50 value of PTX) of 3.1 nM, an IC50 ([2]; 25 μM CIP2b added, read-out: IC50 value of PTX) of 2.15 nM and an IC50 ([2]; PTX alone) of 8.77 nM. The “cell population at the G2/M phase” value ([3]; 5 nM PTX) was “approximately 46%”, the “cell population at the G2/M phase” value ([3]; 10 nM PTX) was ~70% and 69.5% and the “rate of tubulin polymerization” value [4] was “promoted”. For the same molecule, the “onset of tubulin polymerization” value ([4]; tubulin alone 15 min) was “approximately 5 minutes”.

— patent publication US20240082238A1, “COMPOSITIONS AND METHODS FOR TREATING CANCER” (UNIVERSITY OF IOWA RESEARCH FOUNDATION, priority 2021, published 2024)
